# Source: patent publication US8445674B2, “Heterocyclyl compounds” (Hoffmann-La Roche Inc, priority 2009, dated 2013)
# Biological target: T1, human chemokine receptor 2 isoform B (Homo sapiens, UniProt P41597)
# T1 construct: host or cells: CHOK1-CCR2B-A5 cells (CHO-K1)
# T1 sequence (P41597 1-360 isoform P41597-2): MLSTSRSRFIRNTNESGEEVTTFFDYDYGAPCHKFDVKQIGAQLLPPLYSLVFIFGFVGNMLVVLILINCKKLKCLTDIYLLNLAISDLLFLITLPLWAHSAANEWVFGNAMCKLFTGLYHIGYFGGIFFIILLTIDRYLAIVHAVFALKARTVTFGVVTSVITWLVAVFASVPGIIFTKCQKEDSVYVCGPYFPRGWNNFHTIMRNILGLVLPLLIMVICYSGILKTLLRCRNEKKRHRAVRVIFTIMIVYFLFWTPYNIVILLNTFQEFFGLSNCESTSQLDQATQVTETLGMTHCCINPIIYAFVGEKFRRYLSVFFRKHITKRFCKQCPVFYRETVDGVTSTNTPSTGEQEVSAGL
# Experiment: Calcium mobilization assay (FLIPR, antagonist activity against MCP-1)
# Type: cell-based
# Conditions: Ca mobilisation assay, CHOK1-CCR2B-A5 cells, inhibition of calcium increase induced by 20 nM MCP-1
# Description: Calcium Mobilization Assay
# CHOK1-CCR2B-A5 cells (from Euroscreen) stably overexpressing the human chemokine receptor 2 isoform B were cultured in Nutrient Hams F12 medium supplemented with 5% FBS, 100 U/ml penicillin, 100 μg/ml streptomycin, 400 μg/ml G418 and 5 μg/ml puromycin.
# For the assay cells were grown overnight in 384-well black clear flat bottom polystyrene plates (Costar) at 37° C. at 5% CO2. After washing with DMEM, 20 mM Hepes, 2.5 mM probenecid, 0.1% BSA (DMEM assay buffer) cells were loaded with 4 μM Fluo-4 in the same DMEM assay buffer for 2 hours at 30° C. Excess dye was removed and cells were washed with DMEM assay buffer. 384-well compound plates were prepared with DMEM assay buffer/0.5% DMSO with or without various concentrations of test compounds. Usually compounds were tested for agonist and antagonist activity.
# Test compounds were added to the assay plate and agonist activity was monitored as fluorescence for 80 seconds with a FLIPR (488 nm excitation; 510-570 nm emission; Molecular Devices). After 20-30 min. of incubation at 30° C., 20 nM MCP-1 (R&D; Roche) was added and fluorescence was monitored again for 80 seconds. Increases in intracellular calcium are reported as maximum fluorescence after agonist exposure minus basal fluorescence before exposure. Antagonist activity is indicated as inhibitor concentration required for 50% inhibition of specific calcium increases.
row,Molecule,IC50 [nM]
1,"O=C(/C=C/c1ccc(Cl)c(Cl)c1)N1CCC(=O)N(CCC(=O)N2CCCCC2)CC1 [Example 82, 1-[(E)-3-(3,4-Dichloro-phenyl)-acryloyl]-4-(3-oxo-3-piperidin-l-yl-propyl)-[1,4]diazepan-5-one]",1830
2,(S)-4-[4-((S)-4-Hydroxy-6-aza-spiro[2.5]oct-6-yl)-4-oxo-butyl]-2-methyl-3-oxo-piperazine-1-carboxylic acid (3-chloro-phenyl)-amide [Example 39],965
3,"C[C@H]1C[C@H](O)CN(C(=O)CCN2C[C@@H](C)N(C(=O)/C=C/c3cccc(Cl)c3)CCC2=O)C1 [Example 103, (R)-1-[(E)-3-(3-Chloro-phenyl)-acryloyl]-4-[3-((3S,5S)-3-hydroxy-5-methyl-piperidin-1-yl)-3-oxo-propyl]-2-methyl-[1,4]diazepan-5-one]",1290
4,"O=C(/C=C/c1ccc(Cl)c(Cl)c1)N1CCC(=O)N(CCC(=O)N2CCCC(O)C2)CC1 (racemic) [Example 70, (rac)-1-[(E)-3-(3,4-Dichloro-phenyl)-acryloyl]-4-[3-(3-hydroxy-piperidin-1-yl)-3-oxo-propyl]-[1,4]diazepan-5-one]",1300
5,"CC1(CO)CCCN1C(=O)CCN1CCN(C(=O)/C=C/c2ccc(Cl)c(Cl)c2)CCC1=O (racemic) [Example 81, (rac)-1-[(E)-3-(3,4-Dichloro-phenyl)-acryloyl]-4-[3-(2-hydroxymethyl-2-methyl-pyrrolidin-1-yl)-3-oxo-propyl]-[1,4]diazepan-5-one]",1680
6,"C[C@H]1C(=O)N(CCC(=O)N2CCC3(CC3)[C@H](O)C2)CCN1C(=O)/C=C/c1ccc(F)c(Cl)c1 [Example 64, (S)-4-[(E)-3-(3-Chloro-4-fluoro-phenyl)-acryloyl]-1-[3-((S)-4-hydroxy-6-aza-spiro[2.5]oct-6-yl)-3-oxo-propyl]-3-methyl-piperazin-2-one]",1240
7,"CNC(=O)[C@H](CCC(=O)N1CCC2(CC2)[C@H](O)C1)N1CCN(C(=O)Nc2ccc(C(F)(F)F)c(Cl)c2)[C@@H](C)C1=O [Example 142, (S)-4-[(S)-4-((S)-4-Hydroxy-6-aza-spiro[2.5]oct-6-yl)-1-methylcarbamoyl-4-oxo-butyl]-2-methyl-3-oxo-piperazine-1-carboxylic acid (3-chloro-4-trifluoromethyl-phenyl)-amide]",1320
8,"CC1CCN(C(=O)CCN2CCN(C(=O)/C=C/c3ccc(Cl)c(Cl)c3)CCC2=O)CC1 [Example 85, 1-[(E)-3-(3,4-Dichloro-phenyl)-acryloyl]-4-[3-(4-methyl-piperidin-1-yl)-3-oxo-propyl]-[1,4]diazepan-5-one]",1520
9,"O=C(/C=C/c1ccc(Cl)c(Cl)c1)N1CCC(=O)N(CC(=O)N2CCC3(CCCO3)CC2)CC1 [Example 98, 1-[(E)-3-(3,4-Dichloro-phenyl)-acryloyl]-4-[2-(1-oxa-8-aza-spiro[4.5]dec-8-yl)-2-oxo-ethyl]-[1,4]diazepan-5-one]",1700
10,"CN(C)C(=O)C(CCO)N1CCN(C(=O)/C=C/c2ccc(Cl)c(Cl)c2)CCC1=O (racemic) [Example 3, (rac)-2-{4-[(E)-3-(3,4-Dichloro-phenyl)-acryloyl]-7-oxo-[1,4]diazepan-1-yl}-4-hydroxy-N,N-dimethyl-butyramide]",563
11,"C[C@H]1C(=O)N(CCC(=O)N2CC[C@](C)(CO)[C@H](O)C2)CCN1C(=O)Nc1ccc(Cl)c(Cl)c1 (mixture of isomers) [Example 21, (S)-4-[3-((3SR,4RS)-3-Hydroxy-4-hydroxymethyl-4-methyl-piperidin-1-yl)-3-oxo-propyl]-2-methyl-3-oxo-piperazine-1-carboxylic acid (3,4-dichloro-phenyl)-amide]",844
12,"CN(C)C(=O)[C@@H](CCO)N1CCN(C(=O)/C=C/c2cccc(Cl)c2)CCC1=O [Example 14, (R)-2-{4-[(E)-3-(3-Chloro-phenyl)-acryloyl]-7-oxo-[1,4]diazepan-1-yl}-4-hydroxy-N,N-dimethyl-butyramide]",907

# The next molecules have a lower IC50 than those just listed; values first:
row,IC50 [nM],Molecule
1,8,"O=C(CC[C@@H](CO)N1CCN(c2ccc(C(F)(F)F)c(Cl)c2)CCC1=O)N1CCC2(CC2)[C@H](O)C1 [Example 124, 1-(3-Chloro-4-trifluoromethyl-phenyl)-4-[(S)-4-((S)-4-hydroxy-6-aza-spiro[2.5]oct-6-yl)-1-hydroxymethyl-4-oxo-butyl]-[1,4]diazepan-5-one]"
2,337,"CC1(CO)CCN(C(=O)CCN2CCN(C(=O)/C=C/c3ccc(Cl)c(Cl)c3)CCC2=O)CC1 [Example 87, 1-[(E)-3-(3,4-Dichloro-phenyl)-acryloyl]-4-[3-(4-hydroxymethyl-4-methyl-piperidin-1-yl)-3-oxo-propyl]-[1,4]diazepan-5-one]"
3,4.3,"C[C@H]1C(=O)N([C@H](CO)CCC(=O)N2CCC3(CC3)[C@H](O)C2)CCN1C(=O)Nc1ccc(C(F)(F)F)c(Cl)c1 [Example 53, (S)-4-[(S)-4-((S)-4-Hydroxy-6-aza-spiro[2.5]oct-6-yl)-1-hydroxymethyl-4-oxo-butyl]-2-methyl-3-oxo-piperazine-1-carboxylic acid (3-chloro-4-trifluoromethyl-phenyl)-amide]"
4,326,"O=C(/C=C/c1ccc(Cl)c(Cl)c1)N1CCC(=O)N(CCC(=O)N2CCC3(CCCO3)CC2)CC1 [Example 86, 1-[(E)-3-(3,4-Dichloro-phenyl)-acryloyl]-4-[3-(1-oxa-8-aza-spiro[4.5]dec-8-yl)-3-oxo-propyl]-[1,4]diazepan-5-one]"
5,411,"CC1(O)CCCN(C(=O)CN2CCN(C(=O)/C=C/c3ccc(Cl)c(Cl)c3)CCC2=O)C1 (racemic) [Example 100, (rac)-1-[(E)-3-(3,4-Dichloro-phenyl)-acryloyl]-4-[2-(3-hydroxy-3-methyl-piperidin-1-yl)-2-oxo-ethyl]-[1,4]diazepan-5-one]"
6,4.9,"C[C@H]1C(=O)N(CCCC(=O)N2CCC3(CC3)[C@H](O)C2)CCN1C(=O)Nc1ccc(Cl)c(OC(F)(F)F)c1 [Example 35, (S)-4-[4-((S)-4-Hydroxy-6-aza-spiro[2.5]oct-6-yl)-4-oxo-butyl]-2-methyl-3-oxo-piperazine-1-carboxylic acid (4-chloro-3-trifluoromethoxy-phenyl)-amide]"
7,146,"O=C(/C=C/c1ccc(Cl)c(Cl)c1)N1CCC(=O)N(CCC(=O)N2CCC(c3cc[nH]n3)CC2)CC1 [Example 91, 1-[(E)-3-(3,4-Dichloro-phenyl)-acryloyl]-4-{3-oxo-3-[4-(1H-pyrazol-3-yl)-piperidin-1-yl]-propyl}-[1,4]diazepan-5-one]"
8,62.1,"C[C@@H]1C(=O)N(CCCC(=O)N2CCC3(CC3)[C@H](O)C2)[C@@H](C(N)=O)CN1C(=O)Nc1ccc(Cl)c(Cl)c1 [Example 151, (3R,6R)-4-[4-((S)-4-Hydroxy-6-aza-spiro[2.5]oct-6-yl)-4-oxo-butyl]-6-methyl-5-oxo-piperazine-1,3-dicarboxylic acid 3-amide 1-[(3,4-dichloro-phenyl)-amide]]"
9,162,"O=C(/C=C/c1ccc(Cl)c(Cl)c1)N1CCC(=O)N(CCC(=O)N2CCC(O)(c3ccccc3)CC2)CC1 [Example 72, 1-[(E)-3-(3,4-Dichloro-phenyl)-acryloyl]-4-[3-(4-hydroxy-4-phenyl-piperidin-1-yl)-3-oxo-propyl)-[1,4]diazepan-5-one]"
10,216,"COC(=O)[C@H](CCC(=O)N1CCC2(CC2)[C@H](O)C1)N1CCN(C(=O)Nc2ccc(OC(F)(F)F)c(Cl)c2)[C@@H](C)C1=O [Example 54, (S)-2-[(S)-4-(3-Chloro-4-trifluoromethoxy-phenylcarbamoyl)-3-methyl-2-oxo-piperazin-1-yl]-5-((S)-4-hydroxy-6-aza-spiro[2.5]oct-6-yl)-5-oxo-pentanoic acid methyl ester]"
11,386,"C[C@H]1C(=O)N(CCCC(=O)N2CCC3(CC3)[C@H](O)C2)C(C(=O)O)CN1C(=O)Nc1ccc(Cl)c(Cl)c1 (mixture of isomers) [Example 120, (2RS,5S)-4-(3,4-Dichloro-phenylcarbamoyl)-1-[4-((S)-4-hydroxy-6-aza-spiro[2.5]oct-6-yl)-4-oxo-butyl]-5-methyl-6-oxo-piperazine-2-carboxylic acid]"
12,157,"C[C@H]1C(=O)N([C@@H](CO)CCC(=O)N2CCC3(CC3)[C@H](O)C2)CCN1C(=O)Nc1ccc(C(F)(F)F)c(Cl)c1 [Example 146, (S)-4-[(R)-4-((S)-4-Hydroxy-6-aza-spiro[2.5]oct-6-yl)-1-hydroxymethyl-4-oxo-butyl]-2-methyl-3-oxo-piperazine-1-carboxylic acid (3-chloro-4-trifluoromethyl-phenyl)-amide]"
